Results taken from publication PMC2649372 (Biochemistry, 2008).
Numbering of substitutions follows the chain as printed. Values joined by “and” are separate entries in the source; they are usually repeats but may differ in a detail not shown here. Equal entries are not always repeated. Marks after values point to notes of the source that are not given here.

Tests used:
[1] = target: T1, WT 5-HT3 receptor (mouse 5-HT3A subunit) (Mus musculus, UniProt P23979); experiment: Agonist-induced currents, voltage clamp electrophysiology in Xenopus oocytes; type: cell-based; details: for nH (Hill coefficient): WT; for EC50: oocytes, holding potential −60 mV
T1 sequence (P23979 24-483 isoform P23979-2 limits assumed): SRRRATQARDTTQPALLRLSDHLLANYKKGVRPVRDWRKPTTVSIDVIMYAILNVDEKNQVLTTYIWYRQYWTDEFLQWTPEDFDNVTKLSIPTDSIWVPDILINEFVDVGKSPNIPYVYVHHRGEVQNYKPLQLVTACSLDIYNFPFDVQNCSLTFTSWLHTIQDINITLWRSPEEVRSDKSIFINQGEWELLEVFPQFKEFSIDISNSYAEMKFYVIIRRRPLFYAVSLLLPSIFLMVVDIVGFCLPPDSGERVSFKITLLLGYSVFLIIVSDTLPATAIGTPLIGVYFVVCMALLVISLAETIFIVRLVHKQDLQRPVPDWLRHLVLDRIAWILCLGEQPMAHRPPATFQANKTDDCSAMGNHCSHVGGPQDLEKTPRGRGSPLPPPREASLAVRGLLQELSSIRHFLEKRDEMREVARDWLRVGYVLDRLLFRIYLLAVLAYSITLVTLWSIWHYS

[2] = target: T2, N128D mutant 5-HT3 receptor (mouse 5-HT3A subunit) (Mus musculus, UniProt P23979, N128D); experiment: as above; type: cell-based
T2 sequence (P23979 24-483 isoform P23979-2 N128D limits assumed): T1 sequence (P23979 24-483 isoform P23979-2 limits assumed) with N105D

[3] = target: T3, E129N mutant 5-HT3 receptor (mouse 5-HT3A subunit) (Mus musculus, UniProt P23979, E129N); experiment: as above; type: cell-based
T3 sequence (P23979 24-483 isoform P23979-2 E129N limits assumed): T1 sequence (P23979 24-483 isoform P23979-2 limits assumed) with E106N

[4] = target: T4, N128E mutant 5-HT3 receptor (mouse 5-HT3A subunit) (Mus musculus, UniProt P23979, N128E); experiment: as above; type: cell-based; details: for nH (Hill coefficient): N128E
T4 sequence (P23979 24-483 isoform P23979-2 N128E limits assumed): T1 sequence (P23979 24-483 isoform P23979-2 limits assumed) with N105E

[5] = target: T5, N128A mutant 5-HT3 receptor (mouse 5-HT3A subunit) (Mus musculus, UniProt P23979, N128A); experiment: as above; type: cell-based; details: for nH (Hill coefficient): N128A
T5 sequence (P23979 24-483 isoform P23979-2 N128A limits assumed): T1 sequence (P23979 24-483 isoform P23979-2 limits assumed) with N105A

[6] = target: T6, E129D mutant 5-HT3 receptor (mouse 5-HT3A subunit) (Mus musculus, UniProt P23979, E129D); experiment: as above; type: cell-based
T6 sequence (P23979 24-483 isoform P23979-2 E129D limits assumed): T1 sequence (P23979 24-483 isoform P23979-2 limits assumed) with E106D

[7] = target: T7, N128Q mutant 5-HT3 receptor (mouse 5-HT3A subunit) (Mus musculus, UniProt P23979, N128Q); experiment: as above; type: cell-based; details: for nH (Hill coefficient): N128Q
T7 sequence (P23979 24-483 isoform P23979-2 N128Q limits assumed): T1 sequence (P23979 24-483 isoform P23979-2 limits assumed) with N105Q

[8] = target: T3, E129N mutant 5-HT3 receptor (mouse 5-HT3A subunit); experiment: Granisetron inhibition of 5-HT-induced responses in oocytes; type: cell-based; details: 100 nM granisetron, EC50 concentration of 5-HT
[9] = target: T6, E129D mutant 5-HT3 receptor (mouse 5-HT3A subunit); experiment: as above; type: cell-based; details: EC50 concentration of 5-HT
[10] = test system: Asn128 mutant 5-HT3 receptors; details: Asn128 mutant receptors in HEK cells; cited from earlier work
[11] = target: E129A mutant 5-HT3 receptor (mouse 5-HT3A subunit) (Mus musculus, UniProt P23979, E129A); experiment: Single-point [3H]granisetron binding to solubilized oocyte preparations; details: 0.5 nM [3H]granisetron
Chain of E129A mutant 5-HT3 receptor (mouse 5-HT3A subunit) (P23979 24-489 E129A): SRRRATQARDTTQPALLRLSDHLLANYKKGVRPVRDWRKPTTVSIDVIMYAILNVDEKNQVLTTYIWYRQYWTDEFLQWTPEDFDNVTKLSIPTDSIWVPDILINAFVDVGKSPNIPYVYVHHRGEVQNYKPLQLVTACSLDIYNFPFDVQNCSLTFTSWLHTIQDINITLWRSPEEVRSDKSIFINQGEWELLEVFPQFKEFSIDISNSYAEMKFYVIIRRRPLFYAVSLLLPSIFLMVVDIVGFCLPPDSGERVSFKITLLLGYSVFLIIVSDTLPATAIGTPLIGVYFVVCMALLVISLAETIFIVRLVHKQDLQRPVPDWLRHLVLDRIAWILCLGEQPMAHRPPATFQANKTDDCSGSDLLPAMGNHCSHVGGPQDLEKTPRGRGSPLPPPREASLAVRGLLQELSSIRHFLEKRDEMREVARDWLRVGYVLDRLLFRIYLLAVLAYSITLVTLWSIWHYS

[12] = target: E129K mutant 5-HT3 receptor (mouse 5-HT3A subunit) (Mus musculus, UniProt P23979, E129K); experiment: as above; details: 0.5 nM [3H]granisetron
Chain of E129K mutant 5-HT3 receptor (mouse 5-HT3A subunit) (P23979 24-483 isoform P23979-2 E129K limits assumed): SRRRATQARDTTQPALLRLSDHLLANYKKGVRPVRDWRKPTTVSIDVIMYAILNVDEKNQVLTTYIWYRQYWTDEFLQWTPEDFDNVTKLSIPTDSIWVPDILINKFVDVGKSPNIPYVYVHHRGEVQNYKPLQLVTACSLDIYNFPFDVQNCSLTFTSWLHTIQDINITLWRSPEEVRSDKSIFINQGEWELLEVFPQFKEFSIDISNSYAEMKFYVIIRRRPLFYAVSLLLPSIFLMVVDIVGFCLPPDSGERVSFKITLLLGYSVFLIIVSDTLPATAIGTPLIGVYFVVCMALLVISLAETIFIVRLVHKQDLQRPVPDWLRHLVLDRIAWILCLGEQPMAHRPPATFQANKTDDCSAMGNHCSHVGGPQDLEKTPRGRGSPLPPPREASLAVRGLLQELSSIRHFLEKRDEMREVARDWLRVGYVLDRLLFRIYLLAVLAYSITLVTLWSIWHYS

[13] = target: E129G mutant 5-HT3 receptor (mouse 5-HT3A subunit) (Mus musculus, UniProt P23979, E129G); experiment: as above; details: 0.5 nM [3H]granisetron
Chain of E129G mutant 5-HT3 receptor (mouse 5-HT3A subunit) (P23979 24-483 isoform P23979-2 E129G limits assumed): as the sequence (P23979 24-483 isoform P23979-2 E129K limits assumed) above, with K106G counted along it

[14] = test system: Glu129 mutant 5-HT3 receptors; details: any Glu129 mutant receptor in HEK cells; concentrations up to 20 nM; cited from earlier work

Compound	nH (Hill coefficient) [1]	EC50 ([1]; pEC50, WT)	EC50 [4]	nH (Hill coefficient) [4]	EC50 [5]	nH (Hill coefficient) [5]	EC50 [7]	nH (Hill coefficient) [7]	other results
NCCc1c[nH]c2ccc(F)cc12 [5-FT, 5-fluorotryptamine]	2.71 ± 0.24	17.8 µM	13.8 µM	1.97 ± 0.18	10 µM	2.34 ± 0.75	94 µM	2.38 ± 0.58	EC50 [2]: 17.8 µM; nH (Hill coefficient) ([2]; N128D): 2.61 ± 0.28; EC50 [3]: 11.7 µM; nH (Hill coefficient) ([3]; E129N): 1.25 ± 0.13 ^b; EC50 [6]: 8.3 µM; nH (Hill coefficient) ([6]; E129D): 1.95 ± 0.30
NCCc1c[nH]c2ccccc12 [tryptamine]	2.86 ± 0.14	117 µM	59 µM	2.90 ± 0.53	91 µM	2.90 ± 0.68	240 µM	3.10 ± 0.39	EC50 ([1]; EC50, WT): 120 µM
CN1C2CCCC1CC(NC(=O)c1nn(C)c3ccccc13)C2 (stereo not shown) [granisetron]	–	–	–	–	–	–	–	–	block of the response to 5-HT [8]: did not block; block of the response to 5-HT ([9]; 10 nM granisetron): 80 ± 5% and ~80%; block of the response to 5-HT ([9]; 100 nM granisetron): 96 ± 3%
CN1C2CCCC1CC(NC(=O)c1nn(C)c3ccccc13)C2 (stereo not shown) [[^3H]granisetron]	–	–	–	–	–	–	–	–	binding affinity vs WT [10]: no significant differences; specific radioligand binding [11]: No specific radioligand binding; specific radioligand binding [12]: No specific radioligand binding; specific radioligand binding [13]: No specific radioligand binding; specific binding [14]: no specific binding
